Calls of active or inactive are those of the source.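 Rule for the calls: active = Compounds that kill half the cells at a concentration of 5 micromolar or below, from the fitted or estimated CC50; inactive = CC50 above 5 micromolar.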

For the test, the system named is Jurkat E6.1 viability, ATP luminescence, 48 h. Description: viability loss in Jurkat T cells – cell-based, ATP luminescence, 48 h, 60K MLSMR, cytotoxicity control, dose response (AID 464).
For `COC(=O)/C=C/S(=O)(=O)c1ccc(NC(C)=O)cc1`, the CC50 (commonly the concentration at which the toxic effect on the cells reaches its halfway point) was 2310 nM.
The figure for `CN(C)c1ccccc1C(=O)c1ccccc1N(C)C` is 743 nM.
With `CCN(CC)c1ccc2c(c1)OC(N)=C(C#N)C2c1cccnc1` (stereo not drawn), the cytotoxic concentration (CC50) was 19.2 nM.
For `c1csc(CCNc2ncnc3sc4c(c23)CCC4)c1`, the CC50 is 13200 nM (inactive).
As for `CCOc1cc(C#N)c(NC(=O)c2cccnc2)cc1OCC`, the CC50 was 1510 nM.
For the compound `O=C(Nc1nc2ccc(S(=O)(=O)N3CCCC3)cc2s1)C1CCCCC1`, the 50% cytotoxic concentration (CC50) is 3730 nM.
The figure for `CCc1nnc(NC(=O)CSc2nc3cccnc3n2C2CCCCC2)s1` is > 40000 nM (inactive).
The figure for `Cc1c(C(=O)OCC(C)C)[nH]c2c1C(=O)CC(c1ccco1)C2` (stereo not drawn) is 462 nM; for `N#Cc1nc(N2CCCCC2)nc(N2CCOCC2)n1` it is 12900 nM (inactive).
The figure for `O=C(Nc1nc(-c2ccccn2)cs1)c1ccc(Cl)s1` is 2120 nM; for `c1ccc(-c2cccc(-c3ccccn3)n2)nc1` it is 1080 nM.
Turning to `COc1ccccc1C(=O)N1CCN(c2cccc(C(F)(F)F)c2)CC1`, the CC50 was 2090 nM.
The figure for `CCOC(=O)c1c(C)c(C(=O)Nc2cc(OC)ccc2OC)c(C)n1CC` is 11400 nM (inactive); for `COc1cc(C2CC(=O)c3c([nH]c(C(=O)OCCOC(C)C)c3C)C2)cc(OC)c1OC` (stereo not drawn) it is 6550 nM (inactive).
Take `Cc1nc2ccccn2c1-c1csc(NCc2ccco2)n1`: the CC50 was > 40000 nM (inactive).
The figure for `O=C(Nc1ccn(-c2ccccc2)n1)c1ccc(S(=O)(=O)N2CCCCCC2)cc1` is 19800 nM (inactive); for `Cc1ccc2cc(CN(Cc3ccco3)C(=O)c3cccs3)c(=O)[nH]c2c1` it is 2600 nM.
The figure for `COc1ccc(C(=O)N2CCN(c3cccc(Cl)c3)CC2)c(OC)c1` is 8580 nM (inactive).
As for `COc1cc(CSc2nnnn2-c2ccc(C)cc2)cc(OC)c1OC`, the CC50 is 2380 nM.
The figure for `CC(=O)c1cn(CC(=O)Nc2ccccc2)c2ccccc12` is 12600 nM (inactive); for `Oc1c(CN2CCN(c3ccccn3)CC2)cc(Cl)c2cccnc12` it is 2850 nM; for `COc1cc2c(cc1OC)CN(C(=O)c1cc3ccccc3oc1=O)CC2` it is 5040 nM (inactive).
The figure for `CCOC(=O)N1CCN(C(=O)c2cc(-c3ccc(OCC)cc3)nc3ccccc23)CC1` is 1690 nM.
The figure for `Cc1ccc(S(=O)(=O)NCc2ccncc2)cc1` is 2870 nM; for `c1ccc(-c2noc(-c3ccc4c(c3)OCO4)n2)nc1` it is 2750 nM.
For `COc1cccc(C2=CC(c3cccc(OC)c3OC)n3nnnc3N2)c1` (stereo not drawn), the CC50 was 16500 nM (inactive).
The figure for `Cc1cc(C)cc(NS(=O)(=O)c2ccc3[nH]cc(C(=O)NCc4ccco4)c(=O)c3c2)c1` is 5480 nM (inactive); for `COCc1cc(CN2CCCC2)c(O)c2ncccc12` it is > 13000 nM (inactive).
In the case of `COc1cccc(OCc2nc3ncc(Br)cc3[nH]2)c1`, the CC50 is 1120 nM.
Take `CC(=O)N1c2ccccc2N(Cc2ccc(C)cc2C)C(=O)C1(C)C`: the 50% cytotoxic concentration (CC50) was 2220 nM.
On to `COc1ccc(C)c(Cn2c(-c3nonc3N)nc3ccccc32)c1`, for which the CC50 was 1970 nM.
The figure for `N#CC1=C(N)Oc2cc(N)ccc2C1C1CC=CCC1` (stereo not drawn) is > 4400 nM (inactive); for `O=C(CN1CCC(c2nc3ccccc3s2)CC1)NCc1cccs1` it is 18000 nM (inactive).
The figure for `c1ccc(C(Cc2nc(-c3ccncc3)no2)c2ccccc2)cc1` is 8520 nM (inactive); for `CCOC(=O)C1CCN(Cc2ccc(O)c3ncccc23)CC1` it is 9850 nM (inactive).
On to `COc1cccc2sc(Nc3nnc(-c4ccccc4Cl)o3)nc12`, for which the CC50 is 1130 nM.
The figure for `COc1ccc(-c2cn3c(C)c(C(=O)Nc4cc(NC(C)=O)ccc4OC)sc3n2)cc1` is 2230 nM; for `CC(=O)c1c(N2CCN(Cc3ccccc3)CC2)[nH]c(-c2ccccc2)nc1=S` it is > 40000 nM (inactive).

The values are drawn from PubChem BioAssay AID464 (The Scripps Research Institute Molecular Screening Center, 2006).
